# Data published in patent publication US10112933B2, “Methods and compositions for treatment of fibrosis” (Baylor College of Medicine, priority 2013, dated 2018).
# Molecular target: T1, Stat1 (pY701) (Homo sapiens, UniProt P42224)
# T1 construct: endogenous in cells; host or cells: HepG2
# T1 sequence (P42224 1-750): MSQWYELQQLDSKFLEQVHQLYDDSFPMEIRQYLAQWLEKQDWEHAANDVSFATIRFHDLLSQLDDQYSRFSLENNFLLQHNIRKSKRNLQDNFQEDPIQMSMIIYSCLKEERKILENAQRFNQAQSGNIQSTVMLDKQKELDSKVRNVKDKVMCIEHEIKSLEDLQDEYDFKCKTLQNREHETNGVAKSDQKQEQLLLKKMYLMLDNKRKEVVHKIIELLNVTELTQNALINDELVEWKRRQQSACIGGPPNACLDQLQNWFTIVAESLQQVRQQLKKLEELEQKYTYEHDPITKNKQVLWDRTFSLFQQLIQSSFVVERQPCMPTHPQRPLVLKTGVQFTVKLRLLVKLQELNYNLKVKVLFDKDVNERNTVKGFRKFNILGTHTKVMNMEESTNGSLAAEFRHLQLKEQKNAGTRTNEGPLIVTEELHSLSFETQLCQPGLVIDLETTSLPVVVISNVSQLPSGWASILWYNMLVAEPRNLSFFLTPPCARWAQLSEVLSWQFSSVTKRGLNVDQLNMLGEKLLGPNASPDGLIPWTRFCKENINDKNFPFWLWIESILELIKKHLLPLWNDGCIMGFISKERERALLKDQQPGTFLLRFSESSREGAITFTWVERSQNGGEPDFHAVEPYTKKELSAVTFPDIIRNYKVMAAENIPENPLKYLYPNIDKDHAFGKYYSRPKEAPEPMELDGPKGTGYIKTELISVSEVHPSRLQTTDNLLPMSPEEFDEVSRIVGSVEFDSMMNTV
# Assay: Immunoblot: IFN-γ-mediated phosphorylation of Stat1 in HepG2 cells
# Assay type: cell-based
# Settings: HepG2, compound 300 μM, 1 hour
# Protocol: HepG2 cells were pretreated with DMSO alone or DMSO containing each of the compounds at a concentration of 300 μM for 60 min. Cells were then stimulated with IFN-γ (30 ng/ml) for 30 min. Protein extracts of cells were separated by SDS-PAGE and immunoblotted serially with antibodies to pStat1, total Stat1 and β-actin. Blots were stripped between each immunoblotting. The results shown are representative of 2 or more experiments.
# Immunoblot assay. The human hepatocellular carcinoma cell line (HepG2) was grown in 6-well plates under standard conditions. Cells were pretreated with compounds (0, 1, 3, 10, 30, 100 and 300 uM) for 1 hour then stimulated under optimal conditions with either interferon gamma (IFN-γ; 30 ng/ml for 30 min) to activate Stat1 or interleukin-6 (IL-6; 30 ng/ml for 30 min) to activate Stat3 (30-31). Cultures were then harvested and proteins extracted using high-salt buffer, as described (Shao et al., 2006). Briefly, extracts were mixed with 2× sodium dodecyl sulfate (SDS) sample buffer (125 mmol/L Tris-HCL pH 6.8; 4% SDS; 20% glycerol; 10% 2-mercaptoethanol) at a 1:1 ratio and heated for 5 minutes at 100° C. Proteins (20 μg) were separated by 7.5% SDS-PAGE and transferred to polyvinylidene fluoride (PVDF) membrane (Millipore, Waltham, Mass.) and immunoblotted. Prestained molecular weight markers (Biorad, Hercules, Calif.) were included in each gel. Membranes were probed serially with antibody against Stat1 pY^701 or Stat3 pY^705 followed by antibody against Stat1 or Stat3 (Transduction labs, Lexington, Ky.) then antibody against β-actin (Abcam, Cambridge, Mass.). Membranes were stripped between antibody probing using Restore™ Western Blot Stripping Buffer (Thermo Fisher Scientific Inc., Waltham, Mass.) per the manufacturer's instructions. Horseradish peroxidase-conjugated goat-anti-mouse IgG was used as the secondary antibody (Invitrogen Carlsbad, Calif.) and the membranes were developed with enhanced chemiluminescence (ECL) detection system (Amersham Life Sciences Inc.; Arlington Heights, Ill.).
# EXP IIC. Ligand-mediated pStat3 and pStat1 inhibition assays. […] Briefly, human hepatocellular carcinoma cells (HepG2) are grown in 6-well plates and pretreated with compounds (0, 0.1, 0.3, 1, 3, 10, 30, 100 μM) for 1 hour then stimulated under optimal conditions with either interleukin-6 (IL-6; 30 ng/ml for 30 min) to activate Stat3 or interferon gamma (IFN-γ; 30 ng/ml for 30 min) to activate Stat1. Cells are harvested and proteins extracted using high-salt buffer, mixed with 2× sodium dodecyl sulfate (SDS) sample buffer (125 mmol/L Tris-HCL pH 6.8; 4% SDS; 20% glycerol; 10%2-mercaptoethanol) at a 1:1 ratio then heated for 5 minutes at 100° C. Proteins (20 μg) are separated by 7.5% SDS-PAGE and transferred to polyvinylidene fluoride (PVDF) membrane (Millipore, Waltham, Mass.) and immunoblotted. Membranes are probed serially with antibody against Stat1 pY701 or Stat3 pY705 followed by antibody against Stat1 or Stat3 (Transduction labs, Lexington, Ky.) then antibody against β-actin (Abcam, Cambridge, Mass.). Membranes are stripped between antibody probings using Restore™ Western Blot Stripping Buffer (Thermo Fisher Scientific Inc., Waltham, Mass.) per the manufacturer's instructions. Horseradish peroxidase-conjugated goat-anti-mouse IgG is used as the secondary antibody (Invitrogen Carlsbad, Calif.) and the membranes are developed with enhanced chemiluminescence (ECL) detection system (Amersham Life Sciences Inc.; Arlington Heights, Ill.). Band intensities are quantified by densitometry. The value of each pStat3 band is divided by its corresponding total Stat3 band intensity; the results are normalized to the DMSO-treated control value. This value was plotted as a function of the log compound concentration. The best-fitting curve is determined using 4-Parameter Logistic Model/Dose Response/XLfit 4.2, IDBS software and was used to calculate the IC50 value.
row,SMILES,Stat1 phosphorylation after IFN-γ stimulation
1,"O=C(O)c1ccc(C=CC(=O)c2ccc3c(c2)OCCO3)cc1 [Cpd3, 4-[3-(2,3-dihydro-1,4-benzodioxin-6-yl)-3-oxo-1-propen-1-yl]benzoic acid]",did not
2,"CCOc1cc(C=C2C(=O)c3ccccc3C2=O)cc(Cl)c1OCc1cccc(C(=O)O)c1 [Cpd3-2, 3-({2-chloro-4-[(1,3-dioxo-1,3-dihydro-2H-inden-2-ylidene)methyl]-6-ethoxyphenoxy}methyl)benzoic acid]",did not
3,"CCN1C(=O)C(=Cc2ccc(-c3cc(C(=O)O)ccc3Cl)o2)C(=O)N(CC)C1=S [Cpd30-12, 4-chloro-3-{5-[(1,3-diethyl-4,6-dioxo-2-thioxotetrahydro-5(2H)-pyrimidinylidene)methyl]-2-furyl}benzoic acid]",blocked Stat1 phosphorylation
